Test results taken from ChEMBL document CHEMBL1201862, “PubChem BioAssay data set” (2004).
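Results reflect a 48-hour exposure of cells in 96-well plates to compound at five concentrations. The concentration for 50% growth inhibition is given as GI50.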 Activity calls are given as the source filed them. No stated cut-off is given here; in the data, active = GI50 up to about 1.1 µM and inactive = higher.

Key:
Test in all cases: growth of human tumour cells (NCI), 48 h
COLO 205 = system: COLO 205
DU-145 = system: DU-145
EKVX = system: EKVX
HCT-15 = system: HCT-15
HOP-62 = system: HOP-62
HOP-92 = system: HOP-92
Hs-578T = system: Hs-578T
KM12 = system: KM12
M14 = system: M14
MCF7 = system: MCF7
MDA-MB-231 = system: MDA-MB-231
MDA-MB-435 = system: MDA-MB-435
MDA-N = system: MDA-N
MOLT-4 = system: MOLT-4
OVCAR-3 = system: OVCAR-3
OVCAR-8 = system: OVCAR-8
SF-268 = system: SF-268
SK-MEL-28 = system: SK-MEL-28
SN12C = system: SN12C
SNB-75 = system: SNB-75

| SMILES | GI50 (COLO 205) | GI50 (DU-145) | GI50 (EKVX) | GI50 (HCT-15) [µM] | GI50 (HOP-62) | GI50 (HOP-92) | GI50 (Hs-578T) | GI50 (KM12) | GI50 (M14) | GI50 (MCF7) | GI50 (MDA-MB-231) | GI50 (MDA-MB-435) | GI50 (MDA-N) | GI50 (MOLT-4) | GI50 (OVCAR-3) | GI50 (OVCAR-8) | GI50 (SF-268) | GI50 (SK-MEL-28) | GI50 (SN12C) | GI50 (SNB-75) |
| --- | --- | --- | --- | --- | --- | --- | --- | --- | --- | --- | --- | --- | --- | --- | --- | --- | --- | --- | --- | --- |
| Cc1ccc([C@@H]2[C@@H](C(=O)c3ccccn3)[C@H](c3ccc(C)cc3)C[C@](O)(c3ccccn3)[C@H]2C(=O)c2ccccn2)cc1 | 5.24 µM (inactive) | 2.17 µM (inactive) | 0.728 µM (active) | 1.77 | 5.73 µM (inactive) | 4.61 µM (inactive) | 26.5 µM (inactive) | 7.98 µM (inactive) | 1.31 µM (inactive) | 4.86 µM (inactive) | > 32 µM (inactive) | 8.22 µM (inactive) | 3.69 µM (inactive) | 2.07 µM (inactive) | 7.8 µM (inactive) | 3.33 µM (inactive) | 0.946 µM (active) | 6.11 µM (inactive) | 3.18 µM (inactive) | 3.33 µM (inactive) |
| Nc1ccc(-c2nnc(-c3c(Cl)c(Cl)c(Cl)c(Cl)c3-c3nc4cc(C(=O)c5ccccc5)ccc4[nH]3)o2)cc1 | 18.6 µM (inactive) | 24.8 µM (inactive) | 28.6 µM (inactive) | 15.7 | 21.6 µM (inactive) | 27.2 µM (inactive) | 28 µM (inactive) | 27.9 µM (inactive) | 16.6 µM (inactive) | 16 µM (inactive) | 19.3 µM (inactive) | 4.95 µM (inactive) | 4.68 µM (inactive) | 15.9 µM (inactive) | 21 µM (inactive) | 43.8 µM (inactive) | 28.5 µM (inactive) | 28.5 µM (inactive) | 16.8 µM (inactive) | 24 µM (inactive) |
| Cc1csc(NCc2ccc(Cl)cc2)n1 | 24.1 µM (inactive) | > 100 µM (inactive) | 32.7 µM (inactive) | 39.1 | > 100 µM (inactive) | 23.4 µM (inactive) | 54.7 µM (inactive) | 56.1 µM (inactive) | 45.7 µM (inactive) | 43.3 µM (inactive) | 40.6 µM (inactive) | 52.2 µM (inactive) | 57.7 µM (inactive) | 35.9 µM (inactive) | 44.7 µM (inactive) | 56.2 µM (inactive) | 51.2 µM (inactive) | 85.1 µM (inactive) | 81.5 µM (inactive) | 36.3 µM (inactive) |
| CC(C)(C)N1NC1C1NN1C(C)(C)C (stereo not given) | > 100 µM (inactive) | > 100 µM (inactive) | > 100 µM (inactive) | > 100 | > 100 µM (inactive) | > 100 µM (inactive) | > 100 µM (inactive) | > 100 µM (inactive) | > 100 µM (inactive) | > 100 µM (inactive) | > 100 µM (inactive) | > 100 µM (inactive) | > 100 µM (inactive) | > 100 µM (inactive) | > 100 µM (inactive) | > 100 µM (inactive) | > 100 µM (inactive) | > 100 µM (inactive) | > 100 µM (inactive) | > 100 µM (inactive) |
| CCOC(=O)/C=C(\C(=O)OCC)n1ccc(N)nc1=O | > 100 µM (inactive) | > 100 µM (inactive) | 62.8 µM (inactive) | > 100 | > 100 µM (inactive) | 57.4 µM (inactive) | > 100 µM (inactive) | > 100 µM (inactive) | > 100 µM (inactive) | > 100 µM (inactive) | > 100 µM (inactive) | 94.6 µM (inactive) | > 100 µM (inactive) | 97.1 µM (inactive) | > 100 µM (inactive) | > 100 µM (inactive) | > 99.8 µM (inactive) | 1.34 µM (inactive) | > 100 µM (inactive) | > 100 µM (inactive) |
| C=C(Br)C(C)(Br)CCC(Br)C(C)(C)Cl (stereo not given) | 18.5 µM (inactive) | 21.5 µM (inactive) | 22.8 µM (inactive) | 13 | 23 µM (inactive) | 14.6 µM (inactive) | 26.4 µM (inactive) | 16.6 µM (inactive) | 17.3 µM (inactive) | 14.5 µM (inactive) | 17.8 µM (inactive) | 19.4 µM (inactive) | 19.2 µM (inactive) | 2.54 µM (inactive) | 18.6 µM (inactive) | 17.8 µM (inactive) | 17.9 µM (inactive) | 16.3 µM (inactive) | 20.2 µM (inactive) | 16.5 µM (inactive) |
| N#CCCN(CCCN(CCCN(C(=O)Nc1ccccc1)c1ccccc1)C(=O)Nc1ccccc1)C(=O)Nc1ccccc1 | > 8.75 µM (inactive) | > 8.75 µM (inactive) | > 8.75 µM (inactive) | > 100 | > 8.75 µM (inactive) | 20.2 µM (inactive) | 73.5 µM (inactive) | > 8.75 µM (inactive) | > 8.75 µM (inactive) | > 8.75 µM (inactive) | > 8.75 µM (inactive) | > 8.75 µM (inactive) | > 8.75 µM (inactive) | > 8.75 µM (inactive) | > 8.75 µM (inactive) | > 8.75 µM (inactive) | > 8.75 µM (inactive) | > 8.75 µM (inactive) | > 8.75 µM (inactive) | > 8.75 µM (inactive) |
| O=C(NC(=O)c1ccccc1[N+](=O)[O-])Nc1ccc(Oc2ncc(Br)cn2)c(Cl)c1 | 0.046 µM (active) | 0.0318 µM (active) | 0.0348 µM (active) | 0.0441 | 0.0249 µM (active) | 0.0495 µM (active) | 0.0342 µM (active) | 0.023 µM (active) | < 0.016 µM (active) | 0.0265 µM (active) | 0.0469 µM (active) | 0.00802 µM (active) | 0.00857 µM (active) | 0.033 µM (active) | 0.0252 µM (active) | 0.0301 µM (active) | 0.0478 µM (active) | 0.0286 µM (active) | 0.0398 µM (active) | 0.0231 µM (active) |
| COc1ccc(NC(=O)N(C)CC2(O)CCC(C(C)(C)C)CC2)cc1 (stereo not given) | 36.1 µM (inactive) | > 100 µM (inactive) | 56.4 µM (inactive) | 61.7 | > 100 µM (inactive) | 3.66 µM (inactive) | 33.9 µM (inactive) | 42.7 µM (inactive) | > 100 µM (inactive) | 19.4 µM (inactive) | 41.8 µM (inactive) | 57.1 µM (inactive) | 55.1 µM (inactive) | 52.6 µM (inactive) | 23 µM (inactive) | 60.8 µM (inactive) | > 100 µM (inactive) | > 100 µM (inactive) | > 100 µM (inactive) | 52.6 µM (inactive) |
| N=C(N)N/N=C/c1c(Cl)nc2sccn12 | 14.9 µM (inactive) | 44.4 µM (inactive) | 42.9 µM (inactive) | > 10 | 21.5 µM (inactive) | 21.1 µM (inactive) | 18.2 µM (inactive) | 16.4 µM (inactive) | 15.5 µM (inactive) | 26.9 µM (inactive) | 33.6 µM (inactive) | 36.1 µM (inactive) | 30.1 µM (inactive) | 16.4 µM (inactive) | 24.1 µM (inactive) | 50.4 µM (inactive) | 24.2 µM (inactive) | 35.4 µM (inactive) | 38.5 µM (inactive) | 38.1 µM (inactive) |
